System: Phellinus tremulae
Assay: Antifungal activity against Phellinus tremulae at 1 mg/mL
Type: functional

COc1cc(C)cc2c1C(=O)c1c(O)cc(O)c(Cl)c1C2O (configuration not stated)
inhibition at 1000 µg/mL: 50%

COc1cc(C)cc2c1C(=O)c1c(O)cc(O)cc1C2=O [1-O-METHYLEMODIN]
inhibition at 1000 µg/mL: 50%
